Values of other authors, collected in patent US7102020B2, “Total synthesis of daurichromenic acid” (priority 2002, dated 2006).

System: HIV
Conditions: acutely infected H9 cells

CC(C)=CCC/C(C)=C/CC[C@@]1(C)C=Cc2c(cc(C)c(C(=O)O)c2O)O1 [Daurichromenic acid]
anti-HIV activity EC50: 5.67 ng/mL
